Data reported in ChEMBL document CHEMBL3621168, “Elucidating new structural features of the triazole scaffold for the development of mPGES-1 inhibitors” (Medchemcomm, 2015).

What was measured:
[1] = target: T1, Prostaglandin E synthase (Homo sapiens) (UniProt O14684); assay: Inhibition of mPGES1 isolated from human A549 cells at 10 uM after 15 mis by RP HPLC analysis; type: cell-free
T1 sequence (whole entry): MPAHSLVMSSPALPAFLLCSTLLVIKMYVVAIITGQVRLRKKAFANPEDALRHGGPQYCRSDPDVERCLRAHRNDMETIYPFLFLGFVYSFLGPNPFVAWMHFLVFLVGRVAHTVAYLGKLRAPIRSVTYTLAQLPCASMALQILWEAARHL

Prostaglandin E synthase = target: T2, Prostaglandin E synthase (Homo sapiens, UniProt O14684); assay: Inhibition of mPGES1 isolated from human A549 cells after 15 mis by RP HPLC analysis; type: cell-free
T2 sequence (O14684 whole entry): T1 sequence (whole entry)

## N#Cc1ccc(-n2cc(COc3ccc(C(F)(F)F)cc3)nn2)cc1C(F)(F)F
[1]
  inhibition: 20%
Prostaglandin E synthase
  IC50: > 30 µM

## N#Cc1ccc(-n2cc(COc3cccc(C(F)(F)F)c3)nn2)cc1C(F)(F)F
[1]
  inhibition: 20%
Prostaglandin E synthase
  IC50: > 30 µM

## O=[N+]([O-])c1ccc(OCc2cn(-c3cccc(C(F)(F)F)c3)nn2)c(C(F)(F)F)c1
[1]
  inhibition: 20%
Prostaglandin E synthase
  IC50: > 30 µM

## N#Cc1ccc(-n2cc(COc3ccc([N+](=O)[O-])cc3C(F)(F)F)nn2)cc1C(F)(F)F
[1]
  inhibition: 20%
Prostaglandin E synthase
  IC50: > 30 µM

## N#Cc1ccc(-n2nnc(COc3ccc([N+](=O)[O-])cc3C(F)(F)F)c2I)cc1C(F)(F)F
Prostaglandin E synthase
  IC50: 0.7 µM
